Test results reported in patent US8927580B2, “Thiosemicarbazone compounds and use in the treatment of cancer” (Oncochel Therapeutics LLC, priority 2010, dated 2015).

Experiments:
[1] = system: CAPAN-2 pancreatic cancer cells; test: MTT proliferation assay, CAPAN-2; type: cell-based; settings: Homo sapiens; CAPAN-2, MTT, 72 h
Method: (§1) The pancreatic cancer cell lines, including MIAPaCa-2, PANC 1, CAPAN-2 and CFPAC-1 were a generous gift from Prof. Andrew Biankin (Garvan Institute, NSW, Australia). The MIAPaCa-2, PANC 1 and CFPAC-1 cell lines were grown in DMEM medium (Invitrogen) and CAPAN-2 cells were grown in McCoy's medium (Invitrogen). All media was supplemented with 10% (v/v) fetal calf serum (Invitrogen), 1% (v/v) non-essential amino acids (Invitrogen), 1% (v/v) sodium pyruvate (Invitrogen), 2 mM L-glutamine (Invitrogen), 100 μg/mL of streptomycin (Invitrogen), 100 U/ml penicillin (Invitrogen), and 0.28 μg/mL of fungizone.
(§2) To further examine the spectrum of anti-proliferative activity, Dp4cycH4mT was tested against pancreatic cancer in vitro, performing MTT proliferation assays with PANC 1, MIAPaCa-2, CFPAC-1 and CAPAN-2 pancreatic cancer cells. As a comparison, currently used treatments for pancreatic cancer including gemcitabine and 5-fluorouracil were also tested. The iron chelator, DFO, was included as a positive control.
(§3) Table 2A. Anti-proliferative activity of Dp4cycH4mT against pancreatic cancer cell lines. Growth and antiproliferative activity IC50 (μM) values of Dp4cycH4mT in a variety of pancreatic cell lines and in comparison to DFO and the clinically used drugs gemcitabine and 5-fluorouracil as determined by the MTT assay. Cells were seeded and allowed to attach to wells for 24 h and then incubated for 72 h at 37° C. with control medium or the chelators. Results are mean±SD (3 experiments).
as §3, with “2B.” for “2A.”, “IC90” for “Growth and antiproliferative activity IC50”

NDRG1 = test: Western blot analysis, NDRG1 expression; type: cell-based; settings: MIAPaCa-2 cells
Method: (§4) Western analysis was performed via established protocols (Gao, J. and D. R. Richardson (2001). Blood 98: 842-50). The primary antibodies used were against NDRG1 (Abcam; UK), p21, cyclin D1, transferrin receptor 1 (TfR1; Santa Cruz, CA, USA) and β-actin (Sigma-Aldrich), with secondary HRP-conjugated goat and mouse antibodies (Sigma-Aldrich).
(§5) Dp4cycH4mT was examined to determine whether it could up-regulate NDRG-1 expression. To further evaluate the effect of the chelator Dp4cycH4mT on other key molecules involved in cell cycle progression, the expression of the cyclin-dependent kinase inhibitor, p21, as well as cyclin D1 in MIAPaCa-2 cells was also examined.

cyclin D1 = test: Western blot analysis, cyclin D1 levels; type: cell-based; settings: MIAPaCa-2 cells
Method: as §4, §5

methemoglobin (metHb) = test: metHb formation in vivo; parameters: species or system C57BL6 mice; settings: 6 mg/kg intravenously, blood taken after 30 min
Method: FIG. 13. Effect of thiosemicarbazone chelators on metHb-formation in vivo. MetHb after Dp44mT, Triapine® or Dp4cycH4mT treatment in vivo at a dose of 6 mg/kg administered intravenously via the tail vein. Mice in the control group were treated with vehicle alone. At 30 minutes post-administration, whole blood was collected for determination of metHb levels.
The levels of metHb and metMb in RBC lysates were determined using a Shimadzu UV-Vis spectrophotometer (UV-1800; Shimadzu Corporation, Kyoto, Japan) at 577 nm and 630 nm for metHb and metMb in accordance with published methods (Winterbourn CC and Carrell R W (1977). Biochem J 165: 141-148).
C57BL6 mice (7-8 weeks-old) were used under a protocol approved by the university of Sydney Animal Ethics Committee. Dp44mT, Triapine® or Dp4cycH4mT (all at 6 mg/kg) were dissolved in 30% propylene glycol/saline and administered iv via the tail vein. Subsequently, 30 min after administration, mice were anesthetized with isoflurane and blood samples obtained by cardiac puncture. Blood samples were lysed with 2.5 volumes of ultrapure water for metHb estimation. Mice were sacrificed with isoflurane, the heart exhaustively perfused with HBSS and Mb isolated.

[2] = system: pancreatic cancer cell lines; test: MTT proliferation assays, pancreatic cancer cell line panel (comparison of IC50); type: cell-based; settings: in 2 out of the 4 cell types
Method: as §1, §2
Table 2A. Anti-proliferative activity of Dp4cycH4mT against pancreatic cancer cell lines. […]. Cells were seeded and allowed to attach to wells for 24 h and then incubated for 72 h at 37° C. with control medium or the chelators. Results are mean±SD (3 experiments).

[3] = system: SK-N-MC neuroepithelioma cell line; test: MTT anti-proliferative assay in SK-N-MC cells; type: cell-based, human; settings: Homo sapiens, 72 h at 37° C., mean±SD (3 experiments)
Method: The cells were maintained in minimum essential media (MEM; Invitrogen, CA, USA) which contained 10% fetal calf serum (FCS; JRH Biosciences, Kansas, USA), 1% non-essential amino acids (Gibco, Victoria, Australia), 1% penicillin/streptomycin/glutamine (Gibco, VIC, Australia) and fungizone ([…]; Squibb Pharmaceuticals, Montreal, Canada).
The ability of the compounds to inhibit cellular proliferation was assessed initially in SK-N-MC cells by the MTT assay.
Table 1. […] Cells were seed and allowed to attach to wells for 24 h and then incubated for 72 h at 37° C. with control medium or the chelators.

[4] = system: PANC 1 human pancreatic carcinoma; test: PANC 1 xenograft in nude mice: tumour growth; type: in vivo, nude mice (BALBc nu/nu); settings: Dp4cycH4mT 5 mg/kg/day i.v.
Method: FIG. 5). […] (5 mg/kg) or vehicle control.

[5] = system: PANC 1 pancreatic cancer cells; test: MTT proliferation assay, PANC 1; type: cell-based; settings: Homo sapiens; PANC 1, MTT, 72 h
Method: as §1, §2, §3
as §3, with “2B.” for “2A.”, “IC90” for “Growth and antiproliferative activity IC50”

IC50 [1]: 40 ± 8 nM | IC90 [1]: > 5000 nM | metHb (% of total Hb) (methemoglobin (metHb)): comparable to the control | IC50 fold lower compared to 5-fluorouracil [2]: ≥ 1000 fold | IC50 fold lower compared to gemcitabine [2]: at least 100 fold | IC50 [3]: 13 nM | IC50 [5]: 50 ± 2 nM | IC90 [5]: > 5000 nM
SMILES: CN(C(=S)NN=C(c1ccccn1)c1ccccn1)C1CCCCC1 [Dp4cycH4mT, di-2-pyridylketone 4-cyclohexyl-4-methyl-3-thiosemicarbazone]
NDRG1 expression (NDRG1): significantly (p<0.01) up-regulated | cyclin D1 levels (cyclin D1): significantly (p<0.05) reduced | Tumour weight [4]: 0.04 ± 0.01 g
